Holding throughout (assay): NCI-60 cell line screen, 48 h
The test system of test [1] is 786-0 renal.
In test [2] the test system is A498 renal.
Test [3] concerns A549 NSCLC.
The subject of test [4] is EKVX NSCLC.
In test [5] the test system is HL-60(TB) leukemia.
Test [6] has as its system HS 578T breast.
Test [7] relates to KM12 colon.
For test [8], the system named is M14 melanoma.
For test [9], the system named is MALME-3M melanoma.
The subject of test [10] is MCF7 breast.
Test [11] deals with MDA-MB-435.
Test [12] deals with MDA-N.
For test [13], the system named is OVCAR-4 ovarian.
The subject of test [14] is SF-295 CNS.
In test [15] the test system is SW-620 colon.
Test [16] relates to TK-10 renal.
Test [17] has as its system HCC-2998 colon.

Molecules are shown by their SMILES.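 Compound exposure: 48 hours, 5 concentrations, 96-well plates. TGI marks complete inhibition of growth.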

In the case of `O=C(O)C(C(F)(F)F)C(F)(F)F` (tested in a mixture with another compound), the TGI in test [1], in test [2], in test [3], in test [4], in [5] and in test [6] was greater than 100 µM in each case. Also, the TGI in [7], in [8], in test [9], in test [10], in test [11] and in [12] was greater than 100 µM each time. Also, the TGI in test [13], in [14], in test [15] and in test [16] was greater than 100 µM throughout.

Regarding `O=C(/C=C/c1ccc(O)c(O)c1)O[C@H]1CCCC[C@@H]1OC(=O)/C=C/c1ccc(O)c(O)c1`, the TGI in test [1] was 46 µM; in [2], 43.2 µM; in [3], greater than 100 µM; in test [4], 53.8 µM; in test [17] it was 33.7 µM; in test [6] it was greater than 100 µM. The TGI came to 73.3 µM in test [7]; 77.9 µM in [8]; 32.6 µM in test [9]; 70.2 µM in test [10]; 27.1 µM in test [11]; 26.5 µM in test [12]. In addition, the TGI in test [13] is greater than 100 µM; in test [14], 33.3 µM; in [15], 19.5 µM; in test [16], 57.7 µM.

Regarding `O=C(O)c1ccc2[nH]c(=O)oc2c1`, the TGI in [1], in [2], in test [4], in test [5], in test [6] and in [7] was greater than 100 µM in each case. Besides, the TGI in [8], in test [9], in test [10], in [11], in test [12] and in [14] was greater than 100 µM each time. For the same compound, the TGI in test [15] and in test [16] was greater than 100 µM in each case.

On to `O=C(O)c1ccc(C2=Nc3cccc4cccc(c34)N2)cc1`, for which the TGI in test [1], in test [3], in test [4], in test [17], in test [5] and in [6] was greater than 100 µM throughout. Besides, the TGI in [7], in [8], in [9], in test [10], in test [11] and in test [12] was greater than 100 µM each time. The TGI in test [13], in [14], in test [15] and in [16] was greater than 100 µM each time.

With `COc1cc(/C=C/C(=O)N[C@@H]2C(=O)N3[C@@H]2SC(C)(C)[C@@H]3C(=O)O)ccc1O`, the TGI in test [1], in test [2], in test [3], in test [4], in test [17] and in test [5] was greater than 100 µM throughout. Moreover, the TGI in [6], in [7], in [8], in [10], in test [11] and in test [12] was greater than 100 µM in each case. The TGI in [13], in test [14], in test [15] and in [16] was greater than 100 µM throughout.

As for `O=c1oc2ccccc2c(O)c1Cc1ccccc1Cc1c(O)c2ccccc2oc1=O`, the TGI in test [1], in test [2], in test [3], in [4], in [5] and in test [6] was greater than 100 µM throughout. Further, the TGI in test [7], in test [8], in [9], in test [10], in [11] and in test [12] was greater than 100 µM each time. For the same compound, the TGI in [13], in test [14], in test [15] and in test [16] was greater than 100 µM each time.

For `CCOC(=O)c1nc2ccc(C(F)(F)F)cc2nc1NCc1ccc(F)cc1`, the TGI in test [1] is greater than 100 µM; in test [3] it was greater than 100 µM; in test [4] it was greater than 100 µM; in test [17], 78.3 µM; in [5], greater than 100 µM; in [6], 86.5 µM. The TGI in [7], in test [8], in test [9], in test [10], in test [11] and in test [12] was greater than 100 µM each time. The TGI in test [13] was 90.9 µM; in [14], greater than 100 µM; in [15], greater than 100 µM; in [16] it was greater than 100 µM.

Consider `CNc1cc(Cl)ccc1C(=O)N1CCC[C@H]1CO`, for which the TGI in test [1], in test [2], in test [3], in test [4], in test [5] and in test [6] was greater than 100 µM in each case. The TGI in test [7], in [8], in [9], in [10], in [11] and in test [12] was greater than 100 µM in each case. Besides, the TGI in test [13], in [14], in test [15] and in [16] was greater than 100 µM each time.

Consider `O=C1C2CCCCC2C(=O)N1n1c(Cc2ccccc2)n[nH]c1=O` (stereo unspecified), for which the TGI in test [1], in [2], in test [3], in test [4], in [17] and in test [6] was greater than 100 µM each time. In addition, the TGI in test [7], in test [8], in test [9], in test [10], in [11] and in [12] was greater than 100 µM throughout. Further, the TGI in test [13], in [14], in test [15] and in test [16] was greater than 100 µM throughout.

On to `CC(O)/C=C/C1OC(=O)CC1Nc1ccc(C=O)cc1` (stereo unspecified), for which the TGI in test [1], in [2], in test [3], in test [4], in test [17] and in test [6] was greater than 100 µM in each case. Besides, the TGI in [7] was greater than 100 µM; in [8], 41.9 µM; in [9], greater than 100 µM; in [10] it was greater than 100 µM; in test [11], greater than 100 µM; in [12], greater than 100 µM. In addition, the TGI in test [13], in test [14], in [15] and in test [16] was greater than 100 µM throughout.

For the compound `Nc1nc(Cl)cc(NCC2(CO)CC=CC2)n1`, the TGI in [1], in [3], in test [4], in test [17], in [6] and in test [7] was greater than 100 µM in each case. Also, the TGI in test [9], in [10], in [11], in [12], in [13] and in [14] was greater than 100 µM in each case. In addition, the TGI in test [15] and in test [16] was greater than 100 µM in each case.

Consider `COC(OC)[C@@H]1OC[C@H](n2ccc(=O)[nH]c2=O)[C@H]1O`, for which the TGI in [1], in test [2], in test [3], in [4], in test [17] and in test [6] was greater than 100 µM throughout. For the same compound, the TGI in [7], in [8], in [10], in [11], in test [12] and in test [13] was greater than 100 µM each time. Moreover, the TGI in test [14], in test [15] and in test [16] was greater than 100 µM in each case.

Take `CCOC(=O)/C=C(\C(=O)OCC)n1cc(C)c(=O)n(Cc2cn(COCCOC(C)=O)nn2)c1=O`: the TGI in test [1] was greater than 100 µM; in test [3], 56.8 µM; in [4], 22.5 µM; in test [17] it was 43 µM; in [6], 46.1 µM; in [7] it was 30.4 µM. Besides, the TGI in [10] was 22 µM; in [11] it was 28.2 µM; in [12], 50.8 µM; in [13], 48.7 µM; in test [14], 46.3 µM; in test [15] it was greater than 100 µM. Moreover, the TGI in test [16] is 15.9 µM.

As to `N#CCc1nc(-c2cc3ccc(O)cc3oc2=O)cs1`, the TGI in test [1], in [3], in [4], in test [17], in test [5] and in test [6] was greater than 100 µM throughout. Also, the TGI in test [7], in [8], in [9], in [10], in test [11] and in [12] was greater than 100 µM each time. Also, the TGI in test [13], in [14], in test [15] and in [16] was greater than 100 µM each time.

These data come from PubChem BioAssay (NCI).
